From article PMC9861858, “Stereoselective Synthesis and Antiproliferative Activities of Tetrafunctional Diterpene Steviol Derivatives” (International Journal of Molecular Sciences, 2023)
≈ marks a conversion by molar mass, not a printed value. Entries after “also recorded” stand apart in the source; their conditions may differ.

Tests used:
[1] = system: human cancer cell lines (HeLa, SiHa, A2780, MCF-7 and MDA-MB-231); assay: MTT antiproliferative assay, whole cancer cell panel; format: cell-based; conditions: 10 and 30 μM
Description: (§1) The in vitro antiproliferative activities of the synthesised aminotriols 5–18 against a panel of different human cancer cell lines of gynecological origin, including cervical (SiHA and HeLa), breast (MCF7 and MDA-MB-231), ovary (A2780) cancers and NIH/3T3 healthy fibroblasts, were assayed by the MTT method. Cisplatin, a clinically applied anticancer agent was used as a reference compound, and the results are summarised in Figure 3 and Table S1 in the Supplementary Materials.
(§2) The growth-inhibitory effects of the presented terpenes were determined by a standard MTT [3-(4,5-dimethylthiazol2-yl)-2,5-diphenyltetrazolium bromide] assay against […] human cancer cell lines (cervical cancer HeLa and SiHa cell lines, breast cancer MCF-7 and MDA-MB-231 and ovarian cancer A2780). Murine embryonal fibroblast cells (NIH/3T3) were used to determine selectivity. All cell lines were purchased from the European Collection of Cell Cultures (Salisbury, UK). The cells were cultivated in Eagle’s minimal essential medium supplemented with 10% fetal bovine serum, 1% non-essential amino acids, and 1% Antibiotic-Antimycotic complex (penicillin, streptomycin, amphotericin B) at 37 °C in a humidified atmosphere containing 5% CO2. All media and supplements were purchased from Lonza Group Ltd. (Basel, Switzerland). Cancer cells were seeded into 96-well plates (5000 cells/well) after an overnight incubation, and the test compounds were added at two different concentrations (10 μM and 30 μM) and incubated for another 72 h under cell-culturing conditions. Finally, 20 μL of a 5 mg/mL MTT solution was added to each well, and the contents were incubated for a further 4 h. The medium was removed, and the precipitated formazan crystals were dissolved in DMSO by shaking at 37 °C for 60 min. The absorbance was measured at 545 nm by using a microplate reader (SPECTROStar Nano, BMG Labtech, Offenburg, Germany). Clinically utilised anticancer agent cisplatin (Ebewe GmbH, Unterach, Austria) was included as a reference molecule. Calculations were performed using the GraphPad Prism 9 software (GraphPad Software Inc., San Diego, CA, USA).

[2] = Intestinal-specific parallel artificial membrane permeability assay (PAMPA-GI); format: in vitro ADME; conditions: gradient pH system (pH donor 6.5 → pH acceptor 7.4) after 4 h, at 37 °C, mean ± S.E.M, n = 3; for Papp at 4 h, 500 µM: PAMPA, read-out: PAMPA-GI Pe
Description: (§3) Filtrates and calibration solutions (5–500 μ M) of the kinetic solubility study and starting donor and acceptor solutions of the PAMPA-GI study were investigated by HPLC-DAD-MS. LC-MS analysis was performed using a Waters 2795 HPLC with a Waters 2487 DAD detector coupled with a Micromass Quattro Ultima TMPt quadrupol mass spectrometer equipped with an ESI source. Measurements were performed on a Waters XSelect C18 (150 × 4.6 mm; 3.5 μm) column with a […] eluent flow rate and the temperature set at 40 °C. The composition of eluent A was MilliQ water with 0.1% formic acid, and that of eluent B was an acetonitrile and MilliQ water mixture (95:5, v/v), also with 0.1% formic acid. The following linear gradient program was used: 0–6 min, 10–100% B; this was held for 3 min, then from 9.01 min on, back to the starting composition of 10% B–90% A. The injection volume was 10 μL for each sample. Chromatographic profiles were registered at dual wavelength, 220 and 240 nm. The mass spectrometer was used in negative ion mode for samples 2, 3 and 4b, and in positive ion mode for other samples. The operating parameters of the MS were: Mass range of m/z 150–700. Nitrogen gas flow rate was 350 L/h, temperature of 350 °C and pressure of 6 bar. The quadrupol temperature was 120 °C, and the capillary voltage was 2.5 kV. Fragmentor’s voltage of 60 V.
(§4) Intestinal (GI) permeability was determined by using an intestinal-specific parallel artificial membrane permeability assay (PAMPA-GI [36]]). […] All solutions were filtered by MultiScreen HTS Vacuum Manifold (Merck Ltd., Budapest, Hungary) after the incubation period. The target concentration was 500 μM for every sample investigated. The intestinal-specific effective permeability of the samples was determined by PAMPA-GI. To prepare starting solutions for a 96-well donor plate, 15 μLs of the 10 mM DMSO stock solution of investigation compounds and 285 μL pH 6.5 phosphate buffer solution were mixed. These solutions were left in a shaking incubator (300 rpm) at 25 °C for 1 h. Meanwhile, a 96-well acceptor plate was filled with 300 μL of pH 7.4 PBS buffer solution containing 5% DMSO. The intestinal-specific artificial membrane was prepared the following way: the hydrophobic filter material of the donor plate was coated with a mixture of phosphatidylcholine/cholesterol = 2:1 (5 μL, 4 % (w/v) in dodecane). After that, all donor wells were filled with 150 μL of the starting donor solutions, and they were carefully placed on the acceptor plate and incubated at 37 °C for 4 h. After the end of the incubation period the donor and acceptor plates were separated carefully. A total of 150 μL of the donor, acceptor and the starting donor solutions were sampled and analysed with HPLC-DAD-MS. The effective permeability and membrane retention of drugs were calculated using the following equations: Pe=−2.303/A·(t−τss)·1/1+rv·lg[−rv+(1+rv/1−MR)·]CD(t)/CD(0) MR=1−CD(t)/CD(0)−VA·CA(t)/VD·CD(0) where Pe is the effective permeability coefficient (cm/s), A is the filter area (0.3 cm^2), VD and VA are the volumes in the donor (0.15 cm^3) and acceptor phase (0.3 cm^3), t is the incubation time (s), τSS is the time to reach steady-state (s), CD(t) is the concentration of the compound in the donor phase at time point t (mol/cm^3), CD(0) is the concentration of the compound in the donor phase at time point zero (mol/cm^3), rv is the aqueous compartment volume ratio (VD/VA), MR is the membrane retention factor.

[3] = Kinetic aqueous solubility; format: physicochemical; conditions: phosphate buffered saline with 5% DMSO, aqueous with cosolvent or surfactant or cyclodextrin, kinetic from dmso stock; after 2 h, at 37 °C in PBS, pH 7.4, 5% DMSO; target concentration 500 μM; mean ± S.E.M, n = 3
Description: as §3, §4

[4] = system: SiHa cells; assay: MTT antiproliferative assay, SiHa; format: cell-based, human; conditions: for inhibition at 10 µM / inhibition at 30 µM: Homo sapiens, SiHa, 72 h, values <20% considered negligible, read-out: Growth inhibition (%) ± SEM, SiHa
Description: as §1, §2

[5] = system: MDA-MB-231 cells; assay: MTT antiproliferative assay, MDA-MB-231; format: cell-based, human; conditions: for inhibition at 10 µM / inhibition at 30 µM: Homo sapiens, 72 h, values <20% considered negligible, read-out: Growth inhibition (%) ± SEM, MDA-MB-231; for inhibition at 10 µM: MDA-MB-231, 10 μM; for inhibition at 30 µM: MDA-MB-231, 30 μM
Description: as §1, §2

[6] = system: NIH/3T3 fibroblasts; assay: MTT assay on fibroblasts (selectivity); format: cell-based, murine; conditions: Mus musculus, 72 h, values <20% considered negligible, read-out: Growth inhibition (%) ± SEM, NIH/3T3; for inhibition at 10 µM: NIH3T3, 10 μM; for inhibition at 30 µM: NIH3T3, 30 μM
Description: as §1, §2

[7] = system: A2780 cells; assay: MTT antiproliferative assay, A2780; format: cell-based, human; conditions: for inhibition at 10 µM / inhibition at 30 µM: Homo sapiens, 72 h, values <20% considered negligible, read-out: Growth inhibition (%) ± SEM, A2780; for inhibition at 10 µM: A2780, 10 μM; for inhibition at 30 µM: A2780, 30 μM
Description: as §1, §2

[8] = system: MCF-7 cells; assay: MTT antiproliferative assay, MCF-7; format: cell-based, human; conditions: for inhibition at 10 µM / inhibition at 30 µM: Homo sapiens, 72 h, values <20% considered negligible, read-out: Growth inhibition (%) ± SEM, MCF-7; for inhibition at 10 µM: MCF7, 10 μM; for inhibition at 30 µM: MCF7, 30 μM
Description: as §1, §2

[9] = system: HeLa cells; assay: MTT antiproliferative assay, HeLa; format: cell-based, human; conditions: Homo sapiens, HeLa, 72 h, values <20% considered negligible, read-out: Growth inhibition (%) ± SEM, HeLa
Description: as §1, §2

Papp at 4 h, 500 µM [2] [×10⁻⁶ cm/s] | PAMPA-GI MR (membrane retention) [2] [%] | solubility kinetic at 2 h [3] [µM] | melting point [°C] | SMILES | inhibition at 10 µM [4] [%] | inhibition at 30 µM [4] [%] | inhibition at 10 µM [5] [%] | inhibition at 30 µM [5] [%] | inhibition at 10 µM [6] [%] | inhibition at 30 µM [6] [%] | inhibition at 10 µM [7] [%] | inhibition at 30 µM [7] [%] | inhibition at 10 µM [8] [%] | inhibition at 30 µM [8] [%] | inhibition at 10 µM [9] [%] | inhibition at 30 µM [9] [%] | further results
0.52 ± 0.02 | 6.5 ± 0.7 | 443 ± 35.7 (≈ 148 µg/mL) |  | C=C1[C@H](O)[C@@]23CC[C@H]4[C@@](C)(CCC[C@@]4(C)C(=O)O)[C@@H]2CC[C@]1(O)C3 [Compound 2] |  |  |  |  |  |  |  |  |  |  |  |  | Antiproliferative activity on the cancer cell panel, in words [1]: any notable effect was not detectable
0.48 ± 0.05 | 22.4 ± 2.0 | 145 ± 14.1 (≈ 73.2 µg/mL) | 63 to 67 | COC(=O)[C@]1(C)CCC[C@@]2(C)[C@@H]3CCC4(O)C[C@@]3(CC[C@@H]21)[C@@H](O)[C@]4(O)CN[C@H](C)c1ccc(F)cc1 [Compound 11, (4R,4aS,6aR,7R,8R,11aS,11bS)-Methyl 8-((((R)-1-(4-Fluorophenyl)ethyl)amino)methyl)-7,8,9-trihydroxy-4,11b-dimethyltetradecahydro-6a,9-methanocyclohepta[a]naphthalene-4-carboxylate] | 93.66 ± 0.85 | 94.59 ± 0.49 | 93.66 ± 0.59 | 94.31 ± 0.51 | 44.4 ± 0.7 | 90.5 ± 1.16 | 97.06 ± 0.3 | 97.51 ± 0.22 | 96.23 ± 0.59 | 96.27 ± 0.65 | 95.4 ± 1.08 | 95.8 ± 1.11 | 
 | 2.7 ± 0.4 | 321 ± 88.5 (≈ 155 µg/mL) | 123 to 125 | COC(=O)[C@]1(C)CCC[C@@]2(C)C3CC[C@]4(O)C[C@@]3(CCC21)[C@@H](O)[C@]41CN(Cc2ccccc2)CO1 (stereo partly drawn) [Compound 18, (4R,5’R,6aR,7R,9S,11bS)-Methyl 3’-Benzyl-7,9-dihydroxy-4,11b-dimethyldodecahydro-1H-spiro [6a,9-methanocyclohepta[a]naphthalene-8,5’-oxazolidine]-4-carboxylate] | < 20 | 66.1 ± 2.45 | < 20 | 87.7 ± 0.91 | < 20 | < 20 | < 20 | 58.5 ± 3.18 | < 20 | 95.18 ± 0.35 | < 20 | 41.1 ± 1.95 | Antiproliferative effect on SiHa, in words ([4]; 10 and 30 μM): moderate activity; Antiproliferative effect / selectivity on MDA-MB-231, in words ([5]; 10 and 30 μM): moderate activity; also recorded: smaller but also selective antiproliferative effect; Antiproliferative effect on A2780, in words ([7]; 10 and 30 μM): moderate activity; Antiproliferative effect / selectivity on MCF-7, in words ([8]; 10 and 30 μM): Selectivity for MCF-7 cells increased slightly
 | 94.2 ± 2.0 | 18.9 ± 2.4 (≈ 9.86 µg/mL) | 138 to 140 | COC(=O)[C@]1(C)CCC[C@@]2(C)C3CC[C@]4(O)C[C@@]3(CCC21)[C@@H](O)[C@]4(O)CNCc1cccc2ccccc12 (stereo partly drawn) [Compound 14, (4R,6aR,7R,8R,9S,11bS)-Methyl 7,8,9-Trihydroxy-4,11b-dimethyl-8-(((naphthalen-1-ylmethyl)amino)methyl)tetradecahydro-6a,9-methanocyclohepta[a]naphthalene-4-carboxylate] | 97.24 ± 0.39 | 96.7 ± 0.65 | 97.41 ± 0.21 | 96.46 ± 0.34 | 93.25 ± 0.51 | 97.34 ± 0.26 | 92.2 ± 3.33 | 96.81 ± 0.23 | 97.57 ± 0.19 | 97.66 ± 0.28 | 97.2 ± 0.92 | 98.14 ± 0.36 | 
 | 92.6 ± 2.1 | 13.3 ± 0.9 (≈ 7.13 µg/mL) | 93 to 95 | COC(=O)[C@]1(C)CCC[C@@]2(C)C3CC[C@]4(O)C[C@@]3(CCC21)[C@@H](O)[C@]4(O)CN[C@H](C)c1ccc2ccccc2c1 (stereo partly drawn) [Compound 12, (4R,6aR,7R,8R,9S,11bS)-Methyl 7,8,9-Trihydroxy-4,11b-dimethyl-8-((((R)-1-(naphthalen-2-yl)ethyl)amino)methyl)tetradecahydro-6a,9-methanocyclohepta[a]naphthalene-4-carboxylate] | 96.08 ± 0.6 | 95.49 ± 0.86 | 95.84 ± 0.29 | 95.62 ± 0.34 | 90.07 ± 0.51 | 94.67 ± 0.24 | 96.68 ± 0.36 | 96.38 ± 0.3 | 96.35 ± 0.36 | 95.87 ± 0.38 | 96.82 ± 0.56 | 96.94 ± 0.49 | 
